Experiments:
[1] = target: T1, 5-hydroxytryptamine receptor 1D (Homo sapiens, UniProt P28221); assay: Binding affinity towards human 5-hydroxytryptamine 1D receptor
[2] = target: T2, Alpha-1A adrenergic receptor (Homo sapiens, UniProt P35348); assay: Binding affinity towards human Alpha-1 adrenergic receptor
T2 sequence (P35348 whole entry): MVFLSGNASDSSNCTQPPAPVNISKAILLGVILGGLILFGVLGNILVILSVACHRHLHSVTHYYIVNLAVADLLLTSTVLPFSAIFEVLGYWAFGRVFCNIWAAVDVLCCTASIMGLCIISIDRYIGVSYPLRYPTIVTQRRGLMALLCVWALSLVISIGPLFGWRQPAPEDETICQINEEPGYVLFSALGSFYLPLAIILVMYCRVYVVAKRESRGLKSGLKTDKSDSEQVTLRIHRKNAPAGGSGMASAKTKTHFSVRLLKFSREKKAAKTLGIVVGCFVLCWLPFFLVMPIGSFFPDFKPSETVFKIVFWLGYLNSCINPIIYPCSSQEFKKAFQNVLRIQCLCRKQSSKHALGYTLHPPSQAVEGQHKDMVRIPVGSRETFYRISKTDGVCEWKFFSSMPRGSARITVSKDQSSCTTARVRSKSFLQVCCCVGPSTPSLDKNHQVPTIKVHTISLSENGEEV

[3] = target: Serotonin 1 receptors; 5-HT1B & 5-HT1D (Homo sapiens) (UniProt P28222+P28221); assay: Ratio of 5-hydroxytryptamine 1B receptor to that of 5-hydroxytryptamine 1D receptor was determined; format: protein assay
[4] = target: T3, 5-hydroxytryptamine receptor 1B (Homo sapiens, UniProt P28222); assay: Binding affinity towards human 5-hydroxytryptamine 1B receptor
T3 sequence (P28222 whole entry): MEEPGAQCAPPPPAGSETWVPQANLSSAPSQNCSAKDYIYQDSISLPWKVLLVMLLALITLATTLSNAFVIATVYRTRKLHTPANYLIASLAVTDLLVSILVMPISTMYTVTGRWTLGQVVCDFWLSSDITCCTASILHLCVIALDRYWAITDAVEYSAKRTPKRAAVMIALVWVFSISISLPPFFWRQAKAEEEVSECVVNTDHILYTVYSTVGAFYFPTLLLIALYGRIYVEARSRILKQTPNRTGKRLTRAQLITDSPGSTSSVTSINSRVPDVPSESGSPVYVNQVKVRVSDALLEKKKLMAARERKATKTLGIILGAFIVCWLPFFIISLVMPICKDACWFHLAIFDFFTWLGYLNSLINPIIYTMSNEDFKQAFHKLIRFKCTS

[5] = Volume of distribution of compound in rat body tissue at a dose of 5 mg/kg; format: ADME, organism-based; set-up: dose 5 mg/kg; details: in vivo
[6] = Plasma half-life in rat at a dose of 5 mg/kg; format: ADME, organism-based; set-up: dose 5 mg/kg
[7] = Oral bioavailability in rat (dose 5 mg/kg); format: ADME, organism-based; details: in vivo
[8] = Total plasma clearance in rat at a dose of 5 mg/kg; format: ADME, organism-based; set-up: dose 5 mg/kg; details: read-out: Total clearance
Cavia porcellus [9] = organism: Cavia porcellus; assay: Compound was tested for serotonergic activity on […] induced by electrical stimulation in guinea-pigs
Cavia porcellus [10] = assay: Compound was tested for serotonergic activity on […] induced by electrical stimulation in guinea-pigs (3-7 nM/kg)
[11] = target: T3, 5-hydroxytryptamine receptor 1B; details: 1000 nM
Description: Percent displacement of radioligand from human 5-hydroxytryptamine 1B receptor at 1000 nM

[12] = target: T1, 5-hydroxytryptamine receptor 1D; details: 1000 nM
Description: Percent displacement of radioligand from human 5-hydroxytryptamine 1D receptor at 1000 nM

Oryctolagus cuniculus = organism: Oryctolagus cuniculus; assay: Agonistic activity tested in isolated rabbit saphenous vein; format: functional
[13] = target: T4, Muscarinic acetylcholine receptor M4 (Homo sapiens) (UniProt P08173); assay: Inhibitory activity against human Muscarinic acetylcholine receptor M4 at 1000 nM
T4 sequence (whole entry): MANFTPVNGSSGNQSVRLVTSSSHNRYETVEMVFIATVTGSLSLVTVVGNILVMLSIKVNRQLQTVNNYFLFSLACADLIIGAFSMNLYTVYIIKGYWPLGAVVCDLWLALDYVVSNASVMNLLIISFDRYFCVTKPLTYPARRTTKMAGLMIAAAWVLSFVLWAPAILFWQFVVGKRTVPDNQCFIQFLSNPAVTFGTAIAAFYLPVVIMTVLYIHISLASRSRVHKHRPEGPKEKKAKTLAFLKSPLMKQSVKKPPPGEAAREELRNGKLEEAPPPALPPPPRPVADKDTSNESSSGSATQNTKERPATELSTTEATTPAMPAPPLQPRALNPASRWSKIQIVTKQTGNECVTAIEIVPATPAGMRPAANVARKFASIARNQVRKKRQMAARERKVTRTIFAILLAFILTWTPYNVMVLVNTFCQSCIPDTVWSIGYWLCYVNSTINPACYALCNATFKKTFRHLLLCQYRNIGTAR

T1 sequence (P28221 whole entry): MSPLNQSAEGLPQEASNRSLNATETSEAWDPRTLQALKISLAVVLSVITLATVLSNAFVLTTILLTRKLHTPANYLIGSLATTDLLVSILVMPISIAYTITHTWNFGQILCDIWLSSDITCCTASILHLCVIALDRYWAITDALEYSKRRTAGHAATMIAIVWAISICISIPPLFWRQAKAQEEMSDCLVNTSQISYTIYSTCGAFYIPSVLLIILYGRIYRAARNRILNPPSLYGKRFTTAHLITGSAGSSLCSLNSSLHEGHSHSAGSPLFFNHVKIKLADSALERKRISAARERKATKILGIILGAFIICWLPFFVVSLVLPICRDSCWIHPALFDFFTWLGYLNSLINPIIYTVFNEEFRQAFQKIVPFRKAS

SMILES	Ki [1]	Selectivity [3]	Ki [4]	also measured
CC(C)(C)c1ccc(C2=NCCN2)cc1	105 nM	–	–	Ki [2]: 91 nM
Cc1cccc(C)c1N=C1NCCN1	2080 nM	> 10	> 30000 nM	–
c1ccc(NC2=NCCN2)cc1	> 30000 nM	–	> 30000 nM	–
Clc1cc(I)cc(Cl)c1N=C1NCCN1 [PI-CLONIDINE]	50 nM	40	1980 nM	–
Cc1cccc(C)c1CC1=NCCN1	–	> 4	–	–
Cc1cc(C(C)(C)C)cc(C)c1CC1=NCCN1C	–	–	–	Vd [5]: 3.97 L/kg; half-life [6]: 0.95 h; bioavailability [7]: 42.1%; clearance [8]: 66.4 mL/min/kg; IC50 (Cavia porcellus [9]): 10 nM/kg
Cc1cc(C(C)(C)C)cc(C)c1NC1=NCCN1	–	40	–	–
Cc1cc(C(C)(C)C)cc(C)c1CC1=NCCN1 [XYLOMETAZOLINE]	–	–	13 nM	Ki [2]: 91 nM
Cc1cc([N+](=O)[O-])cc(C)c1NC1=NCCN1	–	30	–	–
Cc1cc(Br)cc(C)c1N=C1NCCN1	54 nM	26	1430 nM	–
Cc1cc(Br)cc(C)c1CC1=NCCN1	–	20	–	–
Cc1cc(C(C)(C)C)cc(C)c1N=C1NCCN1	0.3 nM	–	12 nM	–
CNS(=O)(=O)Cc1ccc2[nH]cc(CCN(C)C)c2c1	–	–	–	IC50 (Cavia porcellus [10]): 7 nM/kg
Cc1cc(C(C)(C)C)cc(C)c1CC1=NCCCN1	33 nM	–	4430 nM	Vd [5]: 1.24 L/kg; half-life [6]: 1.03 h; bioavailability [7]: 9.9%; clearance [8]: 28.9 mL/min/kg; IC50 (Cavia porcellus [9]): 5 nM/kg
Cc1cc([N+](=O)[O-])cc(C)c1N=C1NCCN1	330 nM	–	10200 nM	–
Clc1cccc(Cl)c1NC1=NCCN1	–	–	–	inhibition [11]: < 5%; inhibition [12]: < 5%
Cc1cc(C(C)(C)C)cc(C)c1CC1=NCCN1Cc1ccccc1	–	–	–	Vd [5]: 7.28 L/kg; half-life [6]: 1.64 h; bioavailability [7]: 9.3%; EC50 (Oryctolagus cuniculus): 780 nM; clearance [8]: 57.6 mL/min/kg; IC50 (Cavia porcellus [9]): 0.4 nM/kg; inhibition [13]: 68%

Reference: ChEMBL document CHEMBL1137835, “2-(Anilino)imidazolines and 2-(benzyl)imidazoline derivatives as h5-HT1D serotonin receptor ligands” (Bioorg Med Chem Lett, 2004)
